Like-named read-outs stand apart in the source and are kept apart here.
Assays:
[1] = test system: Capan-1 cells (K-Ras G12V); experiment: CellTiter-Glo cell viability, Capan-1; assay type: cell-based, human; conditions: Homo sapiens, CAPAN-1, 120 h, read-out: Capan-1 Cell Viability IC50
Procedure, shortened: (§1)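 Five-day treatment of K-Ras mutant cells with directly dispensed compound; ATP-based luminescence endpoint. Percent of DMSO signal fit to four-parameter logistic curve.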

[2] = test system: NCI-H358 cells (K-Ras G12C); experiment: CellTiter-Glo cell viability, NCI-H358; assay type: cell-based, human; conditions: Homo sapiens, NCI-H358, 120 h, read-out: H358 Cell Viability IC50
Procedure, shortened: as §1

[3] = test system: K-Ras G12C (NCI-H358 cells); experiment: Potency assay: pERK in NCI-H358 cells; assay type: cell-based, human; conditions: Homo sapiens, read-out: pERK EC50 (H358 KRAS G12C)
Procedure, shortened: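 Cells plated the day before were exposed for 4 h at 37° C, 5% CO2 to a 10-point, 3-fold DMSO dilution series (10 mM top stock), in duplicate. Phospho-ERK was read by AlphaLISA SureFire Ultra or by In-Cell Western with DRAQ5 DNA stain, and IC50 came from a 4-parameter sigmoidal fit.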

NRAS Q61R = NRAS Q61R (Homo sapiens (Human), UniProt P01111+P62937, Q61R); experiment: Ras-Raf disruption/FRET/MOA assay (BRAF RBD, Cyclophilin A); assay type: biochemical
Sequence of NRAS Q61R (P01111 whole entry Q61R): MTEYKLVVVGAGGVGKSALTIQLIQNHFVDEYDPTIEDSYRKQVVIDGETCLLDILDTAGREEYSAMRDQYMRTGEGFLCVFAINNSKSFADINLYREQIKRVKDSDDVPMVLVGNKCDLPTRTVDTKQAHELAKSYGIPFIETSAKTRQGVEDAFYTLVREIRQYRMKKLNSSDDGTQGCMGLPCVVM
Sequence of NRAS Q61R (P62937 whole entry): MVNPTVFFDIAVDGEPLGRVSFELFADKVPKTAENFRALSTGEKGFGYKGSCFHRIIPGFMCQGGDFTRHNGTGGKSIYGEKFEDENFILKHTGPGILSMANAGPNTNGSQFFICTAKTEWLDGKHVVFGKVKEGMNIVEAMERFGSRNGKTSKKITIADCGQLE
Procedure, shortened: (§2)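 25 μM tagless Cyclophilin A, 12.5 nM His6-Ras-GMPPNP and 50 nM GST-BRAF RBD in HEPES pH 7.3 buffer with 5 mM MgCl2, with compound (10-point 3-fold series from 30 μM final) for 3 h at 25 °C. Anti-His Eu and anti-GST APC then added for 1.5 h. IC50 from TR-FRET ratio decrease versus DMSO.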

KRAS G12C = KRAS G12C (Homo sapiens (Human), UniProt P01116+P62937, G12C); experiment: as above; assay type: biochemical; conditions: read-out: KRAS G12C FRET IC50
Sequence of KRAS G12C (P01116-2 other isoform, or with tags, fused parts or gaps G12C): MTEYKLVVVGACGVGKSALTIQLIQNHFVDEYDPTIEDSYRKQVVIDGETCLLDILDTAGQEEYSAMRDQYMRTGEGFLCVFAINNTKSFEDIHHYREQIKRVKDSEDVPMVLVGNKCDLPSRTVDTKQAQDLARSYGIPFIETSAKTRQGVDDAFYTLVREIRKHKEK
Sequence of KRAS G12C (P62937 whole entry): as the sequence (P62937 whole entry) above
Procedure, shortened: (§3)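 His6-K-Ras-GMPPNP (12.5 nM), GST-BRAF RBD (50 nM) and tagless Cyclophilin A (25 μM) were combined in 25 mM HEPES pH 7.3 with 100 mM NaCl, 5 mM MgCl2, 0.1% BSA and 0.002% Tween20, with compound as a 10-point 3-fold series from 30 μM final, then incubated 3 h at 25° C.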

KRAS G12D = KRAS G12D (Homo sapiens (Human), UniProt P01116+P62937, G12D); experiment: as above; assay type: biochemical; conditions: read-out: KRAS G12D FRET IC50
Sequence of KRAS G12D (P01116 other isoform, or with tags, fused parts or gaps G12D): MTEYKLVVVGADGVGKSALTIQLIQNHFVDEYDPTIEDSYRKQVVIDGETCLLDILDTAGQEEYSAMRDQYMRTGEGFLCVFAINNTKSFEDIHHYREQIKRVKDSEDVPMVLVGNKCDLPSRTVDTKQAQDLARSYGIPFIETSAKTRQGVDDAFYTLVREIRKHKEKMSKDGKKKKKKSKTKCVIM
Sequence of KRAS G12D (P62937 whole entry): as the sequence (P62937 whole entry) above
Procedure, shortened: as §3

NRAS G12C = NRAS G12C (Homo sapiens (Human), UniProt P01111+P62937, G12C); experiment: as above; assay type: biochemical; conditions: read-out: NRAS G12C FRET data IC50
Sequence of NRAS G12C (P01111 whole entry G12C): as the sequence (P01111 whole entry Q61R) above, with G12C, R61Q counted along it
Sequence of NRAS G12C (P62937 whole entry): as the sequence (P62937 whole entry) above
Procedure, shortened: as §2

NRAS WT = NRAS WT (Homo sapiens (Human), UniProt P01111+P62937); experiment: as above; assay type: biochemical
Sequence of NRAS WT (P01111 whole entry): as the sequence (P01111 whole entry Q61R) above, with R61Q counted along it
Sequence of NRAS WT (P62937 whole entry): as the sequence (P62937 whole entry) above
Procedure, shortened: as §2

KRAS G13D = KRAS G13D (Homo sapiens (Human), UniProt P01116+P62937, G13D); experiment: as above; assay type: biochemical; conditions: read-out: KRAS G13D FRET data IC50
Sequence of KRAS G13D (P01116 other isoform, or with tags, fused parts or gaps G13D): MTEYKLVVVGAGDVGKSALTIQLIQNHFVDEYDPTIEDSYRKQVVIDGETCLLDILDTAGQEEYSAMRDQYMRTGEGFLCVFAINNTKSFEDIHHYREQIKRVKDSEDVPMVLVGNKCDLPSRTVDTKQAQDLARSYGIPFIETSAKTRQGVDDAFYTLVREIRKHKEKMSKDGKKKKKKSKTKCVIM
Sequence of KRAS G13D (P62937 whole entry): as the sequence (P62937 whole entry) above
Procedure, shortened: as §3

KRAS WT = KRAS WT (Homo sapiens (Human), UniProt P01116+P62937); experiment: as above; assay type: biochemical; conditions: read-out: KRAS WT FRET data IC50
Sequence of KRAS WT (P01116 other isoform, or with tags, fused parts or gaps): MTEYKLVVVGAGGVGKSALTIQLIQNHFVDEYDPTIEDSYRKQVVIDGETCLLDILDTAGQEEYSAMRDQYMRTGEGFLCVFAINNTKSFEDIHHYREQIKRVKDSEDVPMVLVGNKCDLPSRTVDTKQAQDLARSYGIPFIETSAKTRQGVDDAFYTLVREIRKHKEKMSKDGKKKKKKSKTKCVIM
Sequence of KRAS WT (P62937 whole entry): as the sequence (P62937 whole entry) above
Procedure, shortened: as §3

KRAS G13C = KRAS G13C (Homo sapiens (Human), UniProt P01116+P62937, G13C); experiment: as above; assay type: biochemical; conditions: read-out: KRAS G13C FRET IC50
Sequence of KRAS G13C (P01116 other isoform, or with tags, fused parts or gaps G13C): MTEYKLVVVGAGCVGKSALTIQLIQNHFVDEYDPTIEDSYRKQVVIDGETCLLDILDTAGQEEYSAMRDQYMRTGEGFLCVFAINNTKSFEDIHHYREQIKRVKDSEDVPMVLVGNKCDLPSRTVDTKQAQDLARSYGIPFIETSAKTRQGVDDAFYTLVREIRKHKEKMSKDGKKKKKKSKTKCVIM
Sequence of KRAS G13C (P62937 whole entry): as the sequence (P62937 whole entry) above
Procedure, shortened: as §3

KRAS G12S = KRAS G12S (Homo sapiens (Human), UniProt P01116+P62937, G12S); experiment: as above; assay type: biochemical; conditions: read-out: KRAS G12S FRET IC50
Sequence of KRAS G12S (P01116 other isoform, or with tags, fused parts or gaps G12S): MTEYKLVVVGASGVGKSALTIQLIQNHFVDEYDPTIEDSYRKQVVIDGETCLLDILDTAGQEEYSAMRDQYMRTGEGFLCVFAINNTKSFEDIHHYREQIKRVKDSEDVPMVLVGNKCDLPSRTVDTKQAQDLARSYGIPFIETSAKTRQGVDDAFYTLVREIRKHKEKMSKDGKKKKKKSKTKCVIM
Sequence of KRAS G12S (P62937 whole entry): as the sequence (P62937 whole entry) above
Procedure, shortened: as §3

KRAS Q61H = KRAS Q61H (Homo sapiens (Human), UniProt P01116+P62937, Q61H); experiment: as above; assay type: biochemical
Sequence of KRAS Q61H (P01116 other isoform, or with tags, fused parts or gaps Q61H): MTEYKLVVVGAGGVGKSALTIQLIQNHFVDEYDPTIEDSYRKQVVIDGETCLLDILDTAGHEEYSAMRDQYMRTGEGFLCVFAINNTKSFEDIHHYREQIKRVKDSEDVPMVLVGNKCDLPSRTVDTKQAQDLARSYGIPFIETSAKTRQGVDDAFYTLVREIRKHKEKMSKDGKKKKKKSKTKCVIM
Sequence of KRAS Q61H (P62937 whole entry): as the sequence (P62937 whole entry) above
Procedure, shortened: as §3

KRAS G12V = KRAS G12V (Homo sapiens (Human), UniProt P01116+P62937, G12V); experiment: as above; assay type: biochemical; conditions: read-out: KRAS G12V FRET IC50
Sequence of KRAS G12V (P01116 other isoform, or with tags, fused parts or gaps G12V): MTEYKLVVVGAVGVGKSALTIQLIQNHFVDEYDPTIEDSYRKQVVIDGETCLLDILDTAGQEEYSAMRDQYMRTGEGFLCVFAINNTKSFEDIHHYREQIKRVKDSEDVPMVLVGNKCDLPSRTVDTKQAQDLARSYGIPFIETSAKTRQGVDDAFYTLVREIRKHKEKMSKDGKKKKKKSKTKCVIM
Sequence of KRAS G12V (P62937 whole entry): as the sequence (P62937 whole entry) above
Procedure, shortened: as §3

CCn1c(-c2cccnc2[C@H](C)OC)c2c3cc(ccc31)-c1csc(n1)C[C@H](NC(=O)[C@H](C(C)C)N(C)C(=O)N1CCCC[C@H](N(C)C)C1)C(=O)N1CCC[C@H](N1)C(=O)OCC(C)(C)C2 [Compound A491]
< 5000 nM: EC50 ([3]; NCI-H358 cells, 4 hours)
10 to 100 nM: IC50 ([1]; K-Ras G12V, 5-day treatment) | IC50 ([2]; K-Ras G12C, 5-day treatment) | IC50 (KRAS G12C) | IC50 (NRAS G12C) | IC50 (NRAS WT) | IC50 (KRAS WT) | IC50 (KRAS G12S) | IC50 (KRAS Q61H)
100 to 1000 nM: IC50 (NRAS Q61R) | IC50 (KRAS G12D) | IC50 (KRAS G13D) | IC50 (KRAS G13C) | IC50 (KRAS G12V)

CCn1c(-c2cccnc2[C@H](C)OC)c2c3cc(ccc31)-c1csc(n1)C[C@H](NC(=O)[C@H](C(C)C)N(C)C(=O)N1CC3(CC(NCCOC)C3)C1)C(=O)N1CCC[C@H](N1)C(=O)OCC(C)(C)C2 [Compound A512]
10 to 100 nM: IC50 ([1]; K-Ras G12V, 5-day treatment) | IC50 ([2]; K-Ras G12C, 5-day treatment)
1000 to 10000 nM: IC50 (KRAS G12D)
100 to 1000 nM: IC50 (NRAS Q61R) | IC50 (KRAS G12C) | IC50 (NRAS G12C) | IC50 (NRAS WT) | IC50 (KRAS G13D) | IC50 (KRAS WT) | IC50 (KRAS G13C) | IC50 (KRAS G12S) | IC50 (KRAS Q61H) | IC50 (KRAS G12V)

CCn1c(-c2cccnc2[C@H](C)OC)c2c3cc(ccc31)-c1csc(n1)C[C@H](NC(=O)[C@H](C(C)C)N(C)C(=O)N1CC(S(=O)(=O)N(C)C)C1)C(=O)N1CCC[C@H](N1)C(=O)OCC(C)(C)C2 [Compound A551]
10 to 100 nM: IC50 [1] | IC50 (KRAS G12C) | IC50 (NRAS G12C) | IC50 (KRAS Q61H)
100 to 1000 nM: IC50 (NRAS Q61R) | IC50 (KRAS G12D) | IC50 (NRAS WT) | IC50 (KRAS G13D) | IC50 (KRAS WT) | IC50 (KRAS G13C) | IC50 (KRAS G12S) | IC50 (KRAS G12V)
< 5000 nM: EC50 ([3]; NCI-H358, 4 h)

CCn1c(-c2cccnc2[C@H](C)OC)c2c3cc(ccc31)-c1csc(n1)C[C@H](NC(=O)[C@H](C(C)C)N(C)C(=O)N(C)CCc1ccncc1)C(=O)N1CCC[C@H](N1)C(=O)OCC(C)(C)C2 [Compound A557]
100 to 1000 nM: IC50 ([1]; K-Ras G12V, 5-day treatment) | IC50 (NRAS Q61R) | IC50 (KRAS G12D) | IC50 (NRAS WT) | IC50 (KRAS G13D) | IC50 (KRAS WT) | IC50 (KRAS G13C) | IC50 (KRAS G12S) | IC50 (KRAS G12V)
10 to 100 nM: IC50 ([2]; K-Ras G12C, 5-day treatment) | IC50 (KRAS G12C) | IC50 (NRAS G12C) | IC50 (KRAS Q61H)

CCn1c(-c2cccnc2[C@H](C)OC)c2c3cc(ccc31)-c1csc(n1)C[C@H](NC(=O)[C@H](C(C)C)N(C)C(=O)N1CCC[C@H](N(C)C)C1)C(=O)N1CCC[C@H](N1)C(=O)OCC(C)(C)C2 [Compound A569]
10 to 100 nM: IC50 [1] | IC50 [2] | IC50 (KRAS G12C) | IC50 (NRAS G12C) | IC50 (NRAS WT) | IC50 (KRAS Q61H)
100 to 1000 nM: IC50 (NRAS Q61R) | IC50 (KRAS G12D) | IC50 (KRAS G13D) | IC50 (KRAS WT) | IC50 (KRAS G13C) | IC50 (KRAS G12S) | IC50 (KRAS G12V)

CCn1c(-c2cccnc2[C@H](C)OC)c2c3cc(ccc31)-c1csc(n1)C[C@H](NC(=O)[C@H](C(C)C)N(C)C(=O)N1CC(CN(C)C)C1)C(=O)N1CCC[C@H](N1)C(=O)OCC(C)(C)C2 [Compound A576]
100 to 1000 nM: IC50 (NRAS Q61R) | IC50 (KRAS G12D) | IC50 (NRAS WT) | IC50 (KRAS G13D) | IC50 (KRAS WT) | IC50 (KRAS G13C) | IC50 (KRAS G12S) | IC50 (KRAS Q61H) | IC50 (KRAS G12V)
10 to 100 nM: IC50 ([1]; K-Ras G12V, 5-day treatment) | IC50 ([2]; K-Ras G12C, 5-day treatment) | IC50 (KRAS G12C) | IC50 (NRAS G12C)

CCn1c(-c2cccnc2[C@H](C)OC)c2c3cc(ccc31)-c1csc(n1)C[C@H](NC(=O)[C@H](C(C)C)N(C)C(=O)N1CCO[C@@H](CN(C)C)C1)C(=O)N1CCC[C@H](N1)C(=O)OCC(C)(C)C2 [Compound A591]
10 to 100 nM: IC50 ([1]; K-Ras G12V, 5-day treatment) | IC50 ([2]; K-Ras G12C, 5-day treatment) | IC50 (KRAS G12C) | IC50 (NRAS G12C) | IC50 (NRAS WT) | IC50 (KRAS Q61H)
100 to 1000 nM: IC50 (NRAS Q61R) | IC50 (KRAS G12D) | IC50 (KRAS G13D) | IC50 (KRAS WT) | IC50 (KRAS G13C) | IC50 (KRAS G12S) | IC50 (KRAS G12V)

— patent US20250195521A1 (Revolution Medicines, Inc., priority 2020, published 2025)
